Reference: patent publication US10487068B2, “Pyridazine derivatives as RORc modulators” (Genentech, Inc., priority 2015, dated 2019)

Each molecule was assayed against T1, RORc ligand binding domain (Homo sapiens, UniProt P51449) (assay: In Vitro RORc Ligand Binding Assay). Settings: RORc IC50, radioligand 25-[3H]hydroxycholesterol 6 nM; 0.6 ug/mL RORc receptor; 3 h at 25° C.
T1 sequence (P51449 269-508 limits assumed): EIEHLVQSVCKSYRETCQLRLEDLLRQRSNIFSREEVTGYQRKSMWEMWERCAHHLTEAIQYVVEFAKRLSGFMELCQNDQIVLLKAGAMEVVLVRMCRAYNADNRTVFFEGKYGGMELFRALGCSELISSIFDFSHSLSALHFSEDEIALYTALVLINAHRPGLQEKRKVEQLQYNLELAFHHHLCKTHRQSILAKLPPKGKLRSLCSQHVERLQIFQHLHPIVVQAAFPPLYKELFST

| SMILES | IC50 [µM] |
| --- | --- |
| COC(=O)c1cncc([C@@]23CC[C@@H](c4cc(-c5c(F)cccc5F)nnc42)C3(C)C)n1 [Example 9, methyl 6-((5R,8S)-3-(2,6-difluorophenyl)-9,9-dimethyl-5,6,7,8-tetrahydro-5,8-methanocinnolin-8-yl)pyrazine-2-carboxylate] | 0.0077 |
| C[C@H](O)Cc1n[nH]c(-c2cncc([C@@]34CC[C@@H](c5cc(-c6c(F)cccc6F)nnc53)C4(C)C)n2)n1 [Example 297, (S)-1-(5-(6-((5R,8S)-3-(2,6-difluorophenyl)-9,9-dimethyl-5,6,7,8-tetrahydro-5,8-methanocinnolin-8-yl)pyrazin-2-yl)-1H-1,2,4-triazol-3-yl)propan-2-ol] | 0.0199 |
| Cc1nc(C#N)ncc1[C@@]12CC[C@@H](c3cc(-c4c(F)cccc4F)nnc31)C2(C)C [Example 227, 5-((5R,8S)-3-(2,6-difluorophenyl)-9,9-dimethyl-5,6,7,8-tetrahydro-5,8-methanocinnolin-8-yl)-4-methylpyrimidine-2-carbonitrile] | 0.717 |
| CC1(C)[C@H]2CC[C@]1(c1ccnc(S(=O)(=O)NCCO)n1)c1nnc(-c3c(F)cccc3F)cc12 [Example 190] | 0.0136 |
| CC(C)(O)c1noc(-c2cccc([C@@]34CC[C@@H](c5cc(-c6c(F)cccc6F)nnc53)C4(C)C)n2)n1 [Example 314, 2-(5-(6-((5R,8S)-3-(2,6-difluorophenyl)-9,9-dimethyl-5,6,7,8-tetrahydro-5,8-methanocinnolin-8-yl)pyridin-2-yl)-1,2,4-oxadiazol-3-yl)propan-2-ol] | 0.0015 |
| CC1(C)[C@H]2CC[C@]1(c1cccc(-c3nnc(CO)o3)n1)c1nnc(-c3c(F)cccc3F)cc12 [Example 144, (5-(6-((5R,8S)-3-(2,6-difluorophenyl)-9,9-dimethyl-5,6,7,8-tetrahydro-5,8-methanocinnolin-8-yl)pyridin-2-yl)-1,3,4-oxadiazol-2-yl)methanol] | 0.0116 |
| CC(C)(O)c1cnc(-c2cncc([C@@]34CC[C@@H](c5cc(-c6c(F)cccc6F)nnc53)C4(C)C)n2)cn1 [Example 400, 2-(6′-((5R,8S)-3-(2,6-difluorophenyl)-9,9-dimethyl-5,6,7,8-tetrahydro-5,8-methanocinnolin-8-yl)-[2,2′-bipyrazin]-5-yl)propan-2-ol] | 0.0087 |
| COC(=O)c1cnc([C@@]23CC[C@@H](c4cc(-c5c(F)cccc5F)nnc42)C3(C)C)cn1 [Example 10, methyl 5-((5R,8S)-3-(2,6-difluorophenyl)-9,9-dimethyl-5,6,7,8-tetrahydro-5,8-methanocinnolin-8-yl)pyrazine-2-carboxylate] | 0.389 |
| CC1(C)[C@H]2CC[C@]1(c1cc(=O)[nH]cn1)c1nnc(-c3c(F)cccc3F)cc12 [Example 226, 6-((5R,8S)-3-(2,6-difluorophenyl)-9,9-dimethyl-5,6,7,8-tetrahydro-5,8-methanocinnolin-8-yl)pyrimidin-4(3H)-one] | 0.363 |
| CC1(C)[C@H]2CC[C@]1(c1cccc(-c3nc(C4(O)CC4)n[nH]3)n1)c1nnc(-c3c(F)cccc3F)cc12 [Example 317, 1-(5-(6-((5R,8S)-3-(2,6-difluorophenyl)-9,9-dimethyl-5,6,7,8-tetrahydro-5,8-methanocinnolin-8-yl)pyridin-2-yl)-1H-1,2,4-triazol-3-yl)cyclopropanol] | 0.0092 |
| CC1(C)[C@H]2CC[C@]1(c1cncc(-c3cnc(CO)o3)n1)c1nnc(-c3c(F)cccc3F)cc12 [Example 206, (5-(6-((5R,8S)-3-(2,6-difluorophenyl)-9,9-dimethyl-5,6,7,8-tetrahydro-5,8-methanocinnolin-8-yl)pyrazin-2-yl)oxazol-2-yl)methanol] | 0.0067 |
| CC1(C)[C@H]2CC[C@]1(c1cncc(-c3cnn(CC(N)=O)c3)n1)c1nnc(-c3c(F)cccc3F)cc12 [Example 405, 2-(4-(6-((5R,8S)-3-(2,6-difluorophenyl)-9,9-dimethyl-5,6,7,8-tetrahydro-5,8-methanocinnolin-8-yl)pyrazin-2-yl)-1H-pyrazol-1-yl)acetamide] | 0.0077 |
| CC1(C)[C@H]2CC[C@]1(c1cncc(C(=O)NC[C@@H](O)CO)n1)c1nnc(-c3c(F)cccc3F)cc12 [Example 107, 6-((5R,8S)-3-(2,6-difluorophenyl)-9,9-dimethyl-5,6,7,8-tetrahydro-5,8-methanocinnolin-8-yl)-N-((R)-2,3-dihydroxypropyl)pyrazine-2-carboxamide] | 0.0695 |
| Cc1nnc(-c2ccnc([C@@]34CC[C@@H](c5cc(-c6c(F)cccc6F)nnc53)C4(C)C)n2)[nH]1 [Example 171, (5R,8R)-3-(2,6-difluorophenyl)-9,9-dimethyl-8-(4-(5-methyl-4H-1,2,4-triazol-3-yl)pyrimidin-2-yl)-5,6,7,8-tetrahydro-5,8-methanocinnoline] | 0.0366 |
| Cc1cncnc1[C@@]12CC[C@@H](c3cc(-c4c(F)cccc4F)nnc31)C2(C)C [Example 19] | 0.0203 |
| CC(C)(O)c1cncc([C@@]23CC[C@@H](c4cc(-c5c(F)cccc5F)nnc42)C3(C)C)n1 [Example 128, 2-(6-((5R,8S)-3-(2,6-difluorophenyl)-9,9-dimethyl-5,6,7,8-tetrahydro-5,8-methanocinnolin-8-yl)pyraizn-2-yl)propan-2-ol] | 0.0215 |

| SMILES | IC50 [µM] |
| --- | --- |
| CC1(C)[C@H]2CC[C@]1(c1ccnc(-n3cncn3)n1)c1nnc(-c3c(F)cccc3F)cc12 [Example 182] | 0.0042 |
| CC1(C)[C@H]2CC[C@]1(c1cncc(NS(C)(=O)=O)n1)c1nnc(-c3c(F)cccc3F)cc12 [Example 34, N-(6-((5R,8S)-3-(2,6-difluorophenyl)-9,9-dimethyl-5,6,7,8-tetrahydro-5,8-methanocinnolin-8-yl)pyrazin-2-yl)methanesulfonamide] | 0.0759 |
| Cc1ncn(-c2cncc([C@]34CC[C@H](c5cc(-c6c(F)cccc6F)nnc53)C4(C)C)n2)n1 [Example 375] | 0.0104 |
| CC1(C)[C@H]2CC[C@]1(c1ccnc(-c3ccc(N)nc3)n1)c1nnc(-c3c(F)cccc3F)cc12 [Example 403] | 0.0068 |
| CC1(C)[C@H]2CC[C@]1(c1cncc(CNC(=O)CO)n1)c1nnc(-c3c(F)cccc3F)cc12 [Example 129, N-((6-((5R,8S)-3-(2,6-difluorophenyl)-9,9-dimethyl-5,6,7,8-tetrahydro-5,8-methanocinnolin-8-yl)pyrazin-2-yl)methyl)-2-hydroxyacetamide] | 0.0567 |
| CC1(C)[C@H]2CC[C@]1(c1cccc(-c3nc(C4(O)COC4)n[nH]3)n1)c1nnc(-c3c(F)cccc3F)cc12 [Example 320, 3-(5-(6-((5R,8S)-3-(2,6-difluorophenyl)-9,9-dimethyl-5,6,7,8-tetrahydro-5,8-methanocinnolin-8-yl)pyridin-2-yl)-1H-1,2,4-triazol-3-yl)oxetan-3-ol] | 0.009 |
| CC1(C)[C@H]2CC[C@]1(c1cncc(C(=O)NCCS(C)(=O)=O)n1)c1nnc(-c3c(F)cccc3F)cc12 [Example 110, 6-((5R,8S)-3-(2,6-difluorophenyl)-9.9-dimethyl-5,6,7,8-tetrahydro-5,8-methanocinnolin-8-yl)-N-(2-(methylsulfonyl)ethyl)pyrazine-2-carboxamide] | 0.0514 |
| CC(C)(O)c1nnc(-c2cccc([C@@]34CC[C@@H](c5cc(-c6c(F)cccc6F)nnc53)C4(C)C)n2)[nH]1 [Example 214, 2-(5-(6-((5R,8S)-3-(2,6-difluorophenyl)-9,9-dimethyl-5,6,7,8-tetrahydro-5,8-methanocinnolin-8-yl)pyridin-2-yl)-4H-1,2,4-triazol-3-yl)propan-2-ol] | 0.0305 |
| C[C@H](O)CNS(=O)(=O)c1cccc([C@@]23CC[C@@H](c4cc(-c5c(F)cccc5F)nnc42)C3(C)C)n1 [Example 201, 6-((5R,8S)-3-(2,6-difluorophenyl)-9,9-dimethyl-5,6,7,8-tetrahydro-5,8-methanocinnolin-8-yl)-N-((S)-2-hydroxypropyl)pyridine-2-sulfonamide] | 0.0334 |
| Cc1nc(-c2cncc([C@@]34CC[C@@H](c5cc(-c6c(F)cccc6F)nnc53)C4(C)C)n2)co1 [Example 120, 4-(6-((5R,8S)-3-(2,6-difluorophenyl)-9,9-dimethyl-5,6,7,8-tetrahydro-5,8-methanocinnolin-8-yl)pyrazin-2-yl)-2-methyloxazole] | 0.0086 |
| CC1(C)[C@H]2CC[C@]1(c1cncc(C3(O)COC3)n1)c1nnc(-c3c(F)cccc3F)cc12 [Example 398, 3-(6-((5R,8S)-3-(2,6-difluorophenyl)-9,9-dimethyl-5,6,7,8-tetrahydro-5,8-methanocinnolin-8-yl)pyrazin-2-yl)oxetan-3-ol] | 0.0125 |
| CC1(C)[C@H]2CC[C@]1(c1ccnc(-n3ccnc3)n1)c1nnc(-c3c(F)cccc3F)cc12 [Example 181] | 0.0037 |
| Cc1nnc(-c2cccc([C@@]34CC[C@@H](c5cc(-c6c(F)cccc6F)nnc53)C4(C)C)n2)o1 [Example 102, 2-(6-((5R,8S)-3-(2,6-difluorophenyl)-9,9-dimethyl-5,6,7,8-tetrahydro-5,8-methanocinnolin-8-yl)pyridin-2-yl)-5-methyl-1,3,4-oxadiazole] | 0.0216 |
| Cc1nc(C#N)c(C#N)nc1[C@@]12CC[C@@H](c3cc(-c4c(F)cccc4F)nnc31)C2(C)C [Example 167, 5-((5R,8S)-3-(2,6-difluorophenyl)-9,9-dimethyl-5,6,7,8-tetrahydro-5,8-methanocinnolin-8-yl)-6-methylpyrazine-2,3-dicarbonitrile] | 0.548 |
| CC1(C)[C@H]2CC[C@]1(c1cc(=O)cc[nH]1)c1nnc(-c3c(F)cccc3F)cc12 [Example 24, 2-((5R,8S)-3-(2,6-difluorophenyl)-9,9-dimethyl-5,6,7,8-tetrahydro-5,8-methanocinnolin-8-yl)pyridin-4(1H)-one] | 1.94 |
